Results reported in ChEMBL document CHEMBL1201862, “PubChem BioAssay data set” (2004).
Activity calls are given as the source filed them.

Experiments:
[1] = molecular target: T1, Long-chain-fatty-acid--AMP ligase FadD28 (Mycobacterium tuberculosis, UniProt P9WQ59); test: Fluorescence polarization aasay to screen for inhibitors that compete for the binding of FadD28 to a bisubstrate Measured in Biochemical System Using Plate Reader - 2147-01_Inhibitor_Dose_CherryPick_Activity.; type: functional, Mycobacterium tuberculosis H37Rv
T1 sequence (P9WQ59 whole entry): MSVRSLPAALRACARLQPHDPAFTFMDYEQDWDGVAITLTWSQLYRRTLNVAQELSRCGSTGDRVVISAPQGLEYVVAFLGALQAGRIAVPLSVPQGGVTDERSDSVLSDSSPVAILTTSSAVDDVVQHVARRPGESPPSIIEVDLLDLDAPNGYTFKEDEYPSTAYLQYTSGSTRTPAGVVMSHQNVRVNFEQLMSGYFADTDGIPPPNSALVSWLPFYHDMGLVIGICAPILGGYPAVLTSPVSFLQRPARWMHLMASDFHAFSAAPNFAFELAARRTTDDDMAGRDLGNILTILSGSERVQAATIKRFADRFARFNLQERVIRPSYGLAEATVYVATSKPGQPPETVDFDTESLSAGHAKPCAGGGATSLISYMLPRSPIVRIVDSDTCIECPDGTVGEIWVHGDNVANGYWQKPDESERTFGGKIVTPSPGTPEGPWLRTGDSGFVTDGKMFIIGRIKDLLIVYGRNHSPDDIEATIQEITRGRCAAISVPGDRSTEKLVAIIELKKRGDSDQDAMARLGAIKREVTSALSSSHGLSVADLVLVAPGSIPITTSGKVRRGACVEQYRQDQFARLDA

[2] = molecular target: T2, Carboxy-terminal domain RNA polymerase II polypeptide A small phosphatase 1 (Homo sapiens, UniProt Q9GZU7); test: CTDSP1 inhibitors, concentration-response, biochemical, absorbance readout, ultra-high-throughput screen actives (AID 540297); type: functional
T2 sequence (Q9GZU7 whole entry): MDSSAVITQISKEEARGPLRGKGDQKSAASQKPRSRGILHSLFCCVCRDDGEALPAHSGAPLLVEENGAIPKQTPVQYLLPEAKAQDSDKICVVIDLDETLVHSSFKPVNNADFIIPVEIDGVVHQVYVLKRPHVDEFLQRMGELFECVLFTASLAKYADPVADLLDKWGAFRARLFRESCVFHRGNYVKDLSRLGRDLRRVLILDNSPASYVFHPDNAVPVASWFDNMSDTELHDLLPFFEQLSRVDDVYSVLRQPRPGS

[3] = molecular target: Eukaryotic translation initiation factor 4E (Mus musculus, UniProt P63073); test: blockers of eIF4G binding by eIF4E – biochemical, TR-FRET, dose response (AID 855); type: functional;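 also: potency for disrupting eIF4E binding to eIF4GI seen as loss of FRET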
[4] = molecular target: T3, Histone-lysine N-methyltransferase NSD2 (Homo sapiens, UniProt O96028); type: biochemical
T3 sequence (O96028 whole entry): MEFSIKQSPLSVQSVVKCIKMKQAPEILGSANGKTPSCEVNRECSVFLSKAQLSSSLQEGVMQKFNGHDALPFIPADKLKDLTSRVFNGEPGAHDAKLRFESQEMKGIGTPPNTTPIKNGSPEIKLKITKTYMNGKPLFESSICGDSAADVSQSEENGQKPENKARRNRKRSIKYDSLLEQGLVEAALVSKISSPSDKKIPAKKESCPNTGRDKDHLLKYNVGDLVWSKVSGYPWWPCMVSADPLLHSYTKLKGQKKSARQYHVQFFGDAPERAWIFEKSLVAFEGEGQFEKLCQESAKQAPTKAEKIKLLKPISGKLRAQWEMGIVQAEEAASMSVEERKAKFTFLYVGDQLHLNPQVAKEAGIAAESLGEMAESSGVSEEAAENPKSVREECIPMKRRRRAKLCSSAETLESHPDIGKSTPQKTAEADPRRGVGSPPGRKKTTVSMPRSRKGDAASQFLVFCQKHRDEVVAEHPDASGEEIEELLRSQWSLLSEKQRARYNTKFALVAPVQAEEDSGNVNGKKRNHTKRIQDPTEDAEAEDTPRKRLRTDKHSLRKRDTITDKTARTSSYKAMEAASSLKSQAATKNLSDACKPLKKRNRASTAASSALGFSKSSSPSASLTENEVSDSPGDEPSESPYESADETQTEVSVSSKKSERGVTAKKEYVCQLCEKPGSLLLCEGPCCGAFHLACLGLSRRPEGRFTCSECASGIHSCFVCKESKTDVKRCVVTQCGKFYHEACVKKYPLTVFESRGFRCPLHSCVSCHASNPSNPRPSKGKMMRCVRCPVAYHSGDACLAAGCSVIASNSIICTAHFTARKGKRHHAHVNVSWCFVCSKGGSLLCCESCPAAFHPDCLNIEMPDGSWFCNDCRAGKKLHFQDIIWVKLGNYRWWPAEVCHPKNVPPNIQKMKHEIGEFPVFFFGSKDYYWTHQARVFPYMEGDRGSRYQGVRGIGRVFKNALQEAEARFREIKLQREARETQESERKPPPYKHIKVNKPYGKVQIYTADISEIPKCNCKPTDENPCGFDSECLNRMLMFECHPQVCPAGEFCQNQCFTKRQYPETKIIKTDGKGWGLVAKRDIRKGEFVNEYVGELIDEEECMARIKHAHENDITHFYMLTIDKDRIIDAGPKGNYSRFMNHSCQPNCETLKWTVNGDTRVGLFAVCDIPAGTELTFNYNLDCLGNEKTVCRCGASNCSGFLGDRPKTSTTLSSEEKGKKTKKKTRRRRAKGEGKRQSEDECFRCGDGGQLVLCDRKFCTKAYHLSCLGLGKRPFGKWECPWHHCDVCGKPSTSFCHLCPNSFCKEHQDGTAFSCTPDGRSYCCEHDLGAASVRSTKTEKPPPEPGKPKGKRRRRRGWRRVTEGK

[5] = NIH3T3 cell viability loss – ATP luminescence, mouse fibroblasts, counter-screen, dose response (AID 2010); type: functional, cell-based;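 also: cells exposed to compound for about 90 hours before reading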
[6] = viability loss in HEK293 cells – cell-based, plate reader, cherry-picked samples, cytotoxicity control, dose response (AID 743446); type: functional
[7] = toxicity toward HepG2 liver cells – cell-based, plate reader, cherry-pick, antagonist series, cytotoxicity control, dose response (AID 743416); type: functional
[8] = A549 cell cytotoxicity, dose response, cytotoxicity control, plate reader, cherry-pick, antagonist series (AID 743412); type: functional, cell-based
[9] = Trypanosoma cruzi growth suppression in host cells – NIH3T3 host cells, beta-gal luminescence, confirmation (AID 2044); type: functional, cell-based;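 also: intracellular parasites grown in NIH/3T3 mouse fibroblasts as host cells; luminescent beta-galactosidase reporter signal from transgenic T. cruzi replicating inside host cells; inhibitors lower the luminescence signal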
[10] = molecular target: NAD-dependent protein deacylase sirtuin-5, mitochondrial (Homo sapiens, UniProt Q9NXA8); test: sirtuin-5 deacylation blockers, concentration series – biochemical, fluorescence imaging, cherry-pick, set 5, dose response (AID 720591);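 also: desuccinylation of succinyl peptide AMC substrate read as fluorescence after trypsin release; potency of inhibitors that lower fluorescence and may act on trypsin instead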
Major prion protein = Major prion protein (Homo sapiens, UniProt P04156); type: functional, cell-based
cells [11] = test: cells
[12] = molecular target: Induced myeloid leukemia cell differentiation protein Mcl-1 (Homo sapiens, UniProt Q07820); type: functional
[13] = blockers of bursicon-stimulated LGR2 cAMP reporter – cell-based, HEK293, CRE-luciferase reporter, cherry pick, set 2, dose response (AID 743343); type: functional;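 also: transfected cells were stimulated with diluted bursicon conditioned medium after compound addition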
Kallikrein-7 = Kallikrein-7 (Homo sapiens, UniProt P49862); test: Fluorescence Intensity-based biochemical primary high throughput dose response assay to identify activators of kallikrein-7 (K7) zymogen.
cells [14] = type: functional
[15] = molecular target: T4, Neuropeptide Y receptor type 2 (Homo sapiens, UniProt P49146); test: Fluorescence-based cell-based high-throughput dose response assay for agonists of NPY-Y2. [Related pubchem assays: 1703 (Screening assay (CNGC inhibitors).), 1359 (Screening assay (NPY-Y2 potentiators or agonists).), 1304 (Screening assay (NPY-Y1 potentiators or agonists).), 1710 (Screening assay (NPY-Y2 agonists).), 1791 (Summary AID.)]; type: functional
T4 sequence (P49146 whole entry): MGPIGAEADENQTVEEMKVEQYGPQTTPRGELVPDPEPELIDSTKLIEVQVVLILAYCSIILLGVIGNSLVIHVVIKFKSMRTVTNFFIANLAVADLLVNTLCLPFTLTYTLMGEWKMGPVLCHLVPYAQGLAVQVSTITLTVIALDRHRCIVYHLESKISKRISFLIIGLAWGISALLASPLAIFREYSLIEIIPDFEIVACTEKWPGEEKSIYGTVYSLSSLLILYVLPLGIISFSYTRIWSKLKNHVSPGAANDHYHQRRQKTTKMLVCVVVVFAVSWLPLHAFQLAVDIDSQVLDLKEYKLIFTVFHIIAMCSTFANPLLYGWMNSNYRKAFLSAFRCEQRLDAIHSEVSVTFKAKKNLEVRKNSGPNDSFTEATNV

[16] = molecular target: T5, Neuropeptide Y receptor type 1 (Homo sapiens, UniProt P25929); test: Fluorescence-based counterscreen for agonists of NPY-Y2: cell-based high-throughput dose response assay for agonists of NPY-Y1.; type: functional
T5 sequence (P25929 whole entry): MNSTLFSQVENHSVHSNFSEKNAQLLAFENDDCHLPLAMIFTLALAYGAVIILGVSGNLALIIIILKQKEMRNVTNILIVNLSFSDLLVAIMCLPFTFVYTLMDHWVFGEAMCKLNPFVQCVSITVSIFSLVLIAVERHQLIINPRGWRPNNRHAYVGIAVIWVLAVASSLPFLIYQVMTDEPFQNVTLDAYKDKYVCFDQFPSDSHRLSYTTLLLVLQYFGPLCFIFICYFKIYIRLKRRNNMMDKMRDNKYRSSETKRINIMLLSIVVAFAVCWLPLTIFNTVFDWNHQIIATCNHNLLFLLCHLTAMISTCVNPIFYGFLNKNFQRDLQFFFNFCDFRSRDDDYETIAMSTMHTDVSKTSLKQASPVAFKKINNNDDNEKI

HEK293 = test: Fluorescence-based counterscreen for potentiators or agonists of NPY-Y2: cell-based high-throughput dose response assay to identify inhibitors of cyclic nucleotide gated ion channel (CNGC) activity. In this assay, the parental HEK293 cell line transfected with a cyclic-nucleotide gated ion channel (CNGC)-based cAMP sensor is used to measure inhibition of isoproterenol-induced CNGC activity by test compound.; type: functional; settings: Homo sapiens;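 also: stimulus is 1 µM isoproterenol at EC100 plus PDE inhibitor Ro 20-1724 at 25 µM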

Question: Which AC50 [1] does the source give for `Cc1ccc(C(=O)OCC(=O)Nc2ccc3c(c2)OCO3)cc1S(=O)(=O)N1CCOCC1` here?
Answer: > 100 µM (inactive)

Question: With `Cc1ccc(NC(=O)CN2C(=O)N/C(=C/c3cc(C)n(-c4cccc(C(=O)O)c4)c3C)C2=O)cc1` as the compound, how does the IC50 [2] read?
Answer: 7.94 µM (active)

Question: And the IC50 [3]?
Answer: 50 µM (inactive)

Question: What about the AC50 [1] of the same compound?
Answer: 27.5 µM (active)

Question: And the AC50 [4]?
Answer: > 20 µM (inactive)

Question: What does the source list for `CCOC(=O)c1c(C)n(C)c2ccc(OCC(O)CNCCc3ccccc3)cc12` (stereo unspecified)?
Answer: EC50 [5]: 4.89 µM (active); AC50 [6]: > 52 µM (inactive); AC50 [7]: 21.9 µM (active); AC50 [8]: 37.7 µM (active); EC50 [9]: 0.601 µM (active)

Question: With `O=C(O)CCNc1nc(C(F)(F)F)nc2ccccc12` as the compound, how does the AC50 [10] read?
Answer: 1.64 µM (active)

Question: Which IC50 (Major prion protein) does the source give for `CN(C(=O)CSc1cc(C(=O)c2nccn2C)c2ccccc2n1)c1ccccc1` here?
Answer: 11.4 µM (inactive)

Question: And the IC50 (cells [11])?
Answer: > 138 µM (inactive)

Question: Which IC50 (Major prion protein) does the source give for `Cc1c(C(=O)c2ccccc2C(=O)O)sc2ccccc12` here?
Answer: 8.21 µM (active)

Question: What about the IC50 (cells [11]) of the same compound?
Answer: > 138 µM (inactive)

Question: Which IC50 [12] does the source give for `COc1cc(/C=N/Nc2nc(C)nc3c2cnn3-c2ccccc2)ccc1O` here?
Answer: 9.67 µM (active)

Question: What about the AC50 [13] of the same compound?
Answer: 23.1 µM (active)

Question: What about the AC50 [6] of the same compound?
Answer: > 52 µM (inactive)

Question: And the AC50 [7]?
Answer: 27.1 µM (active)

Question: What about the AC50 [8] of the same compound?
Answer: 8.71 µM (active)

Question: Which AC50 [10] does the source give for `CCCCCCCCN1C(=O)[C@H](CC(=O)NCC2CCCCC2)C[C@@]2(C(=O)OCC)CCC=C12` here?
Answer: 27.7 µM (active)

Question: Which EC50 (Kallikrein-7) does the source give for `COC(=O)C(C)Oc1ccc2cc(-c3ccccc3)c(=O)oc2c1` (stereo unspecified) here?
Answer: 5.16 µM (active)

Question: What about the IC50 (cells [14]) of the same compound?
Answer: 6.14 µM (active)

Question: For `CCOC(=O)c1ccc(-n2c(=S)sc3c(O)nc(C)nc32)cc1`, which EC50 [15] is on record?
Answer: > 35.4 µM (not active)

Question: What about the EC50 [16] of the same compound?
Answer: > 35.4 µM (not active)

Question: And the EC50 (HEK293)?
Answer: > 35.4 µM (not active)
